In the assay the target is T1, ERα (Homo sapiens, UniProt P03372).
T1 construct: host or cells: MCF-7
T1 sequence (P03372 1-595): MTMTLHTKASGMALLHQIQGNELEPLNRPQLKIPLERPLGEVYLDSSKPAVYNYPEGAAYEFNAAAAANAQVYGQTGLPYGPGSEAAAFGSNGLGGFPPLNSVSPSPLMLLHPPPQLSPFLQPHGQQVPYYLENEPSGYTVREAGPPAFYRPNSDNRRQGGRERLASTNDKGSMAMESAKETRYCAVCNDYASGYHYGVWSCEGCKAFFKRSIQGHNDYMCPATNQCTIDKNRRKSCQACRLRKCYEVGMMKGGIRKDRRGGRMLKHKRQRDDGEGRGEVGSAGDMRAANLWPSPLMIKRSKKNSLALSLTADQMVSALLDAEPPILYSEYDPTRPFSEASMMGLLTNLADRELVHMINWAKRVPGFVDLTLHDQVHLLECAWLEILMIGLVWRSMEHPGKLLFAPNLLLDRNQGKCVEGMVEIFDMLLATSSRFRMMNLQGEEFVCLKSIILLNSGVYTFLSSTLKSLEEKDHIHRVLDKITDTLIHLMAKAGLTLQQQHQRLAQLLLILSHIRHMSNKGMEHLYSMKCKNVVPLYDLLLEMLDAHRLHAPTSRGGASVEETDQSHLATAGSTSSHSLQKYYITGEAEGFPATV
In words: ER degradation activity in MCF-7 cells (Western blot, grayscale intensity). Conditions: 6 hours treatment, 1 nM to 100 nM, concentration required to degrade 50% of the target protein. The format is cell-based. As for the experimental part: ERα-positive human breast cancer cells MCF-7 (ATCC, HTB-22) were cultured with EMEM medium (ATCC, catalog number 30-2003) containing 10% fetal bovine serum (Thermo Fisher, catalog number 10099141) and 10 µg/mL bovine insulin in 25 cm^2 or 75 cm^2 plastic tissue culture flasks in a 37 °C incubator with 5% CO2. The cells were passaged 2 to 3 times per week. MCF-7 cells were seeded in 6-well plate at 1×10^6 cells/well with 1.8 mL culture medium per well, and cultured in a 37 °C incubator with 95% air and 5% CO2. After 24 hours, the test compounds were added: the compounds were serially diluted 10-fold in DMSO starting from 10 mM (dissolved in DMSO) to prepare gradient stock solutions. A complete culture medium containing 1% DMSO was prepared for further dilution, temporarily named as the "dilution buffer." Working solutions were prepared by diluting each stock solution with 99 times the volume of dilution buffer, that is, by adding 1 µL of the 10 mM stock solution to 99 µL of the dilution buffer and mixing thoroughly.
Finally, […] of the working solution was added to the cell-seeded culture plate. The final concentration of DMSO in the cell culture medium was 0.2%, and the final concentration of the test compounds ranged from 1 nM to 100 nM. The cells were then incubated at 37 °C for 6 hours.
The culture medium was removed, and the cells were washed twice with ice cold PBS. 1 mL of PBS was added to each well, and the cells were collected into EP tubes using a cell scraper, and centrifuged at 4 °C, 4000 rpm for 5 minutes. PBS was aspirated. Total protein was extracted using the Minute™ Mammalian Tissue/Cell Total Protein Extraction Reagent. The protein concentration was measured using the BCA protein assay kit. 30 µg of protein was taken and mixed with 5× SDS-PAGE loading buffer, boiled for 10 minutes, and cooled. The samples were loaded into wells of a precast gel, with constant voltage at 80 V for 30 minutes, and then the voltage was changed to 120 V after the samples entered the resolving gel. The "sandwich" (sponge - filter paper - gel - membrane - filter paper - sponge) was assembled for Bio-Rad's Transblot. Transfer was performed for 1 hour at 0.3 amp at 4 °C. The sample was blocked with 5% fat-free milk for 1 hour, and incubated with Estrogen Receptor alpha Antibody (Thermo Fisher, catalog number MA5-14104) overnight at 4 °C. The membrane was washed with TBST to remove non-specifically bound antibodies, and then incubated with goat anti-mouse IgG-HRP secondary antibody for 1 hour at room temperature, and was visualized using ECL. The protein degradation level was calculated by measuring the grayscale intensity.
The DC50 values (i.e., the concentration of the test compounds required to degrade 50% of the target protein) were calculated and shown in Table 1. A corresponds to a DC50 value below 10 nM, B corresponds to a DC50 value greater than 10 nM and less than 100 nM, and C corresponds to DC50 values greater than 100 nM. Table 1. The DC50 values of exemplary compounds in MCF-7 cells

Compound `CC1(C)CC(=C(c2ccc(N3CCC4(CC3)CN(C(=O)CN3Cc5cc6c(cc5C3)C(=O)N(C3CCC(=O)NC3=O)C6)C4)nc2)c2ccc3[nH]nc(F)c3c2)CC(C)(C)O1` (centres unmarked) [Compound 70] came in with a half-maximal degradation concentration (DC50) of 10 to 100 nM.

`CC1(C)CC(=C(c2ccc(N3CC4(CCN(C(=O)CN5Cc6cc7c(cc6C5)C(=O)N(C5CCC(=O)NC5=O)C7)C4)C3)nc2)c2ccc3[nH]nc(F)c3c2)CC(C)(C)O1` (centres unmarked) [Compound 71] registered a DC50 above 100 nM.

Compound `CC1(C)CC(=C(c2ccc(N3CCC4(CN(C(=O)CN5Cc6cc7c(cc6C5)C(=O)N(C5CCC(=O)NC5=O)C7)C4)C3)nc2)c2ccc3[nH]nc(F)c3c2)CC(C)(C)O1` (centres unmarked) [Compound 72] displayed a half-maximal degradation concentration (DC50) above 100 nM.

Compound `CC1(C)CC(=C(c2ccc(N3CCC4(CC3)CN(C(=O)CN3Cc5cc6c(cc5C3)C(=O)N(C3CCC(=O)NC3=O)C6=O)C4)nc2)c2ccc3[nH]nc(F)c3c2)CC(C)(C)O1` (centres unmarked) [Compound 74] returned a DC50 above 100 nM.

Compound `CC1(C)CC(=C(c2ccc(N3CCC(CN4CCN(c5cccc(N6CCC(=O)NC6=O)c5)CC4)CC3)nc2)c2ccc3[nH]nc(F)c3c2)CC(C)(C)O1` [Compound 75] registered a half-maximal degradation concentration (DC50) above 100 nM.

The compound `CC1(C)CC(=C(c2ccc(N3CCC(CN4CCN(c5ccc(N6CCC(=O)NC6=O)cc5)CC4)CC3)cc2)c2ccc3[nH]nc(F)c3c2)CC(C)(C)O1` [Compound 76] registered a 50% degradation concentration (DC50) of 10 to 100 nM.

`CC1(C)CC(=C(c2ccc(N3CCC(N4CCN(c5ccc(N6CCC(=O)NC6=O)cc5)CC4)CC3)cc2)c2ccc3[nH]nc(F)c3c2)CC(C)(C)O1` [Compound 78] yielded a DC50 above 100 nM.

For `CC1(C)CC(=C(c2ccc(N3CCN(C4CCN(c5ccc(N6CCC(=O)NC6=O)cc5)CC4)CC3)cc2)c2ccc3[nH]nc(F)c3c2)CC(C)(C)O1` [Compound 81], the DC50 is above 100 nM.

With `CC1(C)CC(=C(c2ccc(N3CCN(C4CN(c5ccc(N6CCC(=O)NC6=O)cc5)C4)CC3)cc2)c2ccc3[nH]nc(F)c3c2)CC(C)(C)O1` [Compound 82], the DC50 is above 100 nM.

`CC1(C)CC(=C(c2ccc(N3CCC(CN4CCN(c5ccc(F)c(NC6CCC(=O)NC6=O)c5)CC4)CC3)nc2)c2ccc3[nH]nc(F)c3c2)CC(C)(C)O1` (centres unmarked) [Compound 83] registered a 50% degradation concentration (DC50) below 10 nM.

The compound `CC1(C)CC(=C(c2ccc(N3CC4(CN(C(=O)CN5CCC(c6ccc(NC7CCC(=O)NC7=O)cc6F)CC5)C4)C3)nc2)c2ccc3[nH]nc(F)c3c2)CC(C)(C)O1` (centres unmarked) [Compound 84] displayed a DC50 above 100 nM.

Compound `CC1(C)CC(=C(c2ccc(N3CCC(N4CCN(c5ccc(NC6CCC(=O)NC6=O)cc5)CC4)CC3)cc2)c2ccc3[nH]nc(F)c3c2)CC(C)(C)O1` (centres unmarked) [Compound 86] gave a 50% degradation concentration (DC50) above 100 nM.

The compound `CC1(C)CC(=C(c2ccc(N3CCC(CN4CCN(c5ccc(NC6CCC(=O)NC6=O)cc5)CC4)CC3)cc2)c2ccc3[nH]nc(F)c3c2)CC(C)(C)O1` (centres unmarked) [Compound 87] showed a 50% degradation concentration (DC50) above 100 nM.

`CC1(C)CC(=C(c2ccc(N3CCN(C4CCN(c5ccc(NC6CCC(=O)NC6=O)cc5)CC4)CC3)cc2)c2ccc3[nH]nc(F)c3c2)CC(C)(C)O1` (centres unmarked) [Compound 91] returned a DC50 above 100 nM.

In the case of `Cn1nc(N2CCC(=O)NC2=O)c2ccc(C3CCN(CC(=O)N4CCN(c5ccc(C(=C6CC(C)(C)OC(C)(C)C6)c6ccc7[nH]nc(F)c7c6)cn5)CC4)CC3)cc21` [Compound 92], the 50% degradation concentration (DC50) is above 100 nM.

`Cn1nc(N2CCC(=O)NC2=O)c2ccc(C3CCN(CC(=O)N4CCN(c5ccc(C(=C6CC(C)(C)OC(C)(C)C6)c6ccc7[nH]nc(F)c7c6)cn5)CC4)CC3(F)F)cc21` (centres unmarked) [Compound 93] displayed a DC50 above 100 nM.

As for `Cn1nc(N2CCC(=O)NC2=O)c2ccc(C3CCN(CC(=O)N4CC5(C4)CN(c4ccc(C(=C6CC(C)(C)OC(C)(C)C6)c6ccc7[nH]nc(F)c7c6)cn4)C5)CC3(F)F)cc21` (centres unmarked) [Compound 94], the DC50 was above 100 nM.

In the case of `Cn1nc(N2CCC(=O)NC2=O)c2ccc(C3CCN(CC(=O)N4CC5(C4)CN(c4ccc(C(=C6CC(C)(C)OC(C)(C)C6)c6ccc7[nH]nc(F)c7c6)cn4)C5)CC3)cc21` [Compound 95], the DC50 is above 100 nM.

`CC1(C)CC(=C(c2ccc(N3CCC(CN4CCN(c5cccn6c(N7CCC(=O)NC7=O)cnc56)CC4)CC3)nc2)c2ccc3[nH]nc(F)c3c2)CC(C)(C)O1` [Compound 96, 1-(8-(4-((1-(5-((3-fluoro-1H-indazole-5-yl)(2,2,6,6-tetramethyltetrahydro-4H-pyran-4-ylidene)methyl)pyridin-2-yl)piperidin-4-yl)methyl)piperazin-1-yl)imidazole [1,2-a]pyridin-3-yl)dihydropyrimidine-2,4 (1H, 3H) - dione] displayed a half-maximal degradation concentration (DC50) below 10 nM.

For the compound `CN(CC1CCN(c2ccc(C(=C3CC(C)(C)OC(C)(C)C3)c3ccc4[nH]nc(F)c4c3)cn2)CC1)C1CCN(c2cccn3c(N4CCC(=O)NC4=O)cnc23)CC1` [Compound 97], the DC50 fell in the range of 10 to 100 nM.

`CN(CC1CCN(c2ccc(C(=C3CC(C)(C)OC(C)(C)C3)c3ccc4[nH]nc(F)c4c3)cn2)CC1)C1CCN(c2ccn3c(N4CCC(=O)NC4=O)cnc3c2)CC1` [Compound 98] had a DC50 above 100 nM.

The compound `Cn1c(=O)n(C2CCC(=O)NC2=O)c2cccc(C3CCN(CC4CCN(c5ccc(C(=C6CC(C)(C)OC(C)(C)C6)c6ccc7[nH]nc(F)c7c6)cn5)CC4)CC3)c21` (centres unmarked) [Compound 99] came in with a DC50 of 10 to 100 nM.

Regarding `Cn1c(=O)n(C2CCC(=O)NC2=O)c2cccc(C#CCOC3CCN(c4ccc(C(=C5CC(C)(C)OC(C)(C)C5)c5ccc6[nH]nc(F)c6c5)cn4)CC3)c21` (centres unmarked) [Compound 100], the DC50 is above 100 nM.

`Cn1c(=O)n(C2CCC(=O)NC2=O)c2cccc(C#CCN3CCN(c4ccc(C(=C5CC(C)(C)OC(C)(C)C5)c5ccc6[nH]nc(F)c6c5)cn4)CC3)c21` (centres unmarked) [Compound 101] showed a DC50 above 100 nM.

`CC1(C)CC(=C(c2ccc3[nH]nc(F)c3c2)c2c(F)cc(N3CCN(CC4CCN(c5ccc6c(c5)C(=O)N(C5CCC(=O)NC5=O)C6=O)CC4)CC3)cc2F)CC(C)(C)O1` (centres unmarked) [Compound 102] yielded a half-maximal degradation concentration (DC50) above 100 nM.

On to `CC1(C)CC(=C(c2ccc(N3CCC(CN4CCN(c5ccc6c(c5)C(=O)N(C5CCC(=O)NC5=O)C6=O)CC4)CC3)nc2)c2ccc3[nH]nc(F)c3c2)CC(C)(C)O1` (centres unmarked) [Compound 103], for which the 50% degradation concentration (DC50) fell in the range of 10 to 100 nM.

Consider `CC1(C)CC(=C(c2ccc(N3CCC(N4CCN(c5ccc6c(c5)C(=O)N(C5CCC(=O)NC5=O)C6=O)CC4)CC3)nc2)c2ccc3[nH]nc(F)c3c2)CC(C)(C)O1` (centres unmarked) [Compound 104], for which the half-maximal degradation concentration (DC50) was above 100 nM.

The compound `CC1(C)CC(=C(c2ccc(N3CCN(C4CCN(c5ccc6c(c5)C(=O)N(C5CCC(=O)NC5=O)C6=O)CC4)CC3)nc2)c2ccc3[nH]nc(F)c3c2)CC(C)(C)O1` (centres unmarked) [Compound 105] showed a 50% degradation concentration (DC50) below 10 nM.

In turn, `CC1(C)CC(=C(c2ccc(N3CCN(C4CN(c5ccc6c(c5)C(=O)N(C5CCC(=O)NC5=O)C6=O)C4)CC3)nc2)c2ccc3[nH]nc(F)c3c2)CC(C)(C)O1` (centres unmarked) [Compound 106] registered a 50% degradation concentration (DC50) above 100 nM.

`CC1(C)CC(=C(c2ccc(N3CCC(CN4CCN(c5cccc(NC6CCC(=O)NC6=O)c5)CC4)CC3)cc2)c2ccc3[nH]nc(F)c3c2)CC(C)(C)O1` (centres unmarked) [Compound 107] came in with a DC50 above 100 nM.

In turn, `CC1(C)CC(=C(c2ccc(N3CCN(C4CCN(c5cccc(NC6CCC(=O)NC6=O)c5)CC4)CC3)cc2)c2ccc3[nH]ncc3c2)CC(C)(C)O1` (centres unmarked) [Compound 108] gave a 50% degradation concentration (DC50) above 100 nM.

Regarding `CC1(C)CC(=C(c2ccc(N3CC4(CCC(N5CCN(c6ccc7c(c6)CN(C6CCC(=O)NC6=O)C7=O)CC5)CC4)C3)nc2)c2ccc3[nH]nc(F)c3c2)CC(C)(C)O1` (centres unmarked) [Compound 109], the 50% degradation concentration (DC50) is below 10 nM.

The values above are taken from patent publication EP4722209A1 (Beijing Shenogen Pharma Group, priority 2023, dated 2024).
